Test results reported in patent publication US6623914B2, “Method for preparing an acid salt of p-phenylenediamine-type photographic color developers” (Eastman Chemical Company, priority 2001, dated 2003).

Test: Solubility (saturation concentration) of color developer free base in solvents at ambient temperature
Conditions: ambient temperatures; liquid free base; stated, saturation concentration not evaluated
Experimental: To define the free base solution product compositions, the solubility of the free base form of color developers N-ethyl-N-(2-methanesulfonylaminoethyl)-2-methyl-p-phenylenediamine and N-ethyl-N-(2-hydroxyethyl)-2-methyl-p-phenylenediamine was determined in a number of potential solvents at ambient temperature, nominally 24° C.
A small quantity, about 3 weight % relative to the weight of the solvent, of N,N-diethylhydroxylamine (DEHA) was added as a preservative to each determination. Excess color developer free base identified above was added to each solvent and saturation was achieved by mixing for several hours at room temperature.

CCN(CC)c1ccc(N)cc1C [N,N-diethyl-2-methyl-p-phenylenediamine]
Miscibility with the water-soluble, water-miscible, hydroxy-containing solvent candidates: fully miscible
